“Also recorded” adds a separate entry of the source.

The record followed here is PMC4987650, “Structural Investigation of Park’s Nucleotide on Bacterial Translocase MraY: Discovery of Unexpected MraY Inhibitors” (Scientific Reports, 2016).

Series [1] addresses T1, MraYBS (Bacillus subtilis, UniProt Q03521).
T1 construct: MBP; made in house
T1 sequence (Q03521 1-324): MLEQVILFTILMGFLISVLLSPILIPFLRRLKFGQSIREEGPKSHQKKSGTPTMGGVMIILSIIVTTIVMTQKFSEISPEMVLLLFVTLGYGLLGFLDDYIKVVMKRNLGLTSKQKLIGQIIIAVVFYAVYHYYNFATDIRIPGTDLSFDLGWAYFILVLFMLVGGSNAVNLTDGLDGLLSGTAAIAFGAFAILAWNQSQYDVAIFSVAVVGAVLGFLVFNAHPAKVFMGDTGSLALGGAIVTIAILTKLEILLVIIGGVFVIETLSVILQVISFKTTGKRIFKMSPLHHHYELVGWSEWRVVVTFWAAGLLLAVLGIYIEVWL
As to the kind of experiment: MraY fluorescence enhancement assay (kinetics, inhibition). It counts as biochemical. Particulars: for Inhibition Mode: Lineweaver-Burk, 6 as substrate. The method, then:
(§1) Determine kinetic parameters by MraY fluorescence enhancement assay. The fluorescence enhancement assay was performed in 384-well plate as described by Bugg et al. with slight modifications.5 The reaction mixture containing MraYBS (10 μg/mL), C55P (200 μM) in 30 μL reaction buffer (30 mM Tris, 10 mM MgCl2, 10 mM NaCl, 0.1 mM Tween-20, 2.5% DMSO, pH 8.0) were pre-incubated at 37 °C for 15 min. The reactions were initiated by the addition of various concentrations of NBD-Park’s nucleotide 6 (0 to 160 μM). For inhibition study, a various concentrations of inhibitors were added before the addition of substrate 6. The continuous fluorescence increase over 60 min was monitored with λex 466 nm/λem 535 nm by fluorescence microplate reader (SpectraMax M5, Molecular Devices, LLC) at 37 °C. Linear regressions of increased fluorescent units (FLU) versus time (min) were used to calculate the initial velocities for each reaction. The kinetic parameters values (Ki, KM, and Vmax) were obtained by nonlinear regression analysis using the […] equation with the GraphPad Prism program (GraphPad Software, San

The subject of series [2] is B. subtilis. As to the kind of experiment: Minimal inhibitory concentration, broth dilution. The format is cell-based, B. subtilis (BCRC 10614). Particulars: Bacillus subtilis, standard broth dilution. The method, then:
(§2) Determination of Minimal Inhibition Concentration (MIC). B. subtilis (BCRC 10614) and S. aureus (BCRC 11863) was obtained from Bioresource Collection and Research Center (BCRC), Taiwan. The minimal inhibitory concentration of tested compounds was determined following the NCCLS standard. The experiments were conducted in 96-well microtiter plates using 16-point 2-fold dilutions in Muller-Hilton broth. Exponentially growing cells at 5 × 10^5 cells/mL were incubated with test compounds at various concentrations in a final volume of 100 μL. After an 18 to 24 h incubation at 37 °C, the minimal concentration of the compound that prevents at least 95% bacterial growth was determined as the MIC value of a given molecule.
(§3) (1 picture or pasted object on this page, not shown here)

The test system of series [3] is S. aureus. The series can be described thus: Minimal inhibitory concentration, broth dilution. The format is cell-based, S. aureus (BCRC 11863). Particulars: Staphylococcus aureus, standard broth dilution. The method, then: as §2, §3
(In broth dilution the organism is exposed to a series of concentrations in liquid medium.)

Series [4] has as its target T1, MraYBS. The series can be described thus: Biolayer interferometry-based (BLI) binding assay. On the procedure:
MraYBS binding was measured in a biolayer interferometry-based binding assay on Octet Red96® instrument (ForteBio, Inc.). The biotinylation of MraYBS was performed with using EZ-Link® Sulfo-NHS-LC-LC-Biotin Kit (Thermo Fisher Scientific, Inc.). In general, MraYBS (1.7 mg/mL) in 50 μL reaction buffer (0.01 M HEPES pH 7.4, 0.15 M NaCl, 0.005% v/v Surfactant P20), was added by the sulfo-NHS-LC-LC-biotin reagent (1 mM, 1 μL). After incubating for 30 minutes at room temperature, the biotinylated-MraYBS was purified by a Zeba^TM Spin Desalting Columns, 7K MWCO (Thermo Fisher Scientific, Inc.), and the buffer was changed to the binding buffer (30 mM Tris, 10 mM MgCl2, 10 mM NaCl, 0.1 mM Tween-20, pH 8.0) during the purification. Comparing to the non-biotinylated-MraYBS, the biotinylated-MraYBS remains 62% activity measured by the HPLC-based MraY functional assay in 1 h reaction. The biotinylated MraYBS was then immobilized to Super Streptavidin (SSA) Octet tips (ForteBio, Inc.) for reaching a fixed signal of 3 nm. Before the assay starting, the MraYBS-labeled SSA sensors were pre-soaked in binding buffer for 30 min. The association of Park’s analogues with MraYBS were measured by incubating MraYBS-labeled SSA sensors in binding buffer containing various concentrations of samples in Octet Red system. The dissociation was monitored by moving the ligand biosenors from the analyte solution to binding buffer. The dissociation constants (KD) were obtained by nonlinear regression analysis using the specific binding model with the GraphPad Prism program (GraphPad Software, San Diego, CA).
For orientation: In BLI a coated tip is dipped into the sample, and binding shifts an interference pattern.

In series [5] the target is T1, MraYBS. The series can be described thus: HPLC-based MraY functional assay (substrate activity). The settings on record: Park's nucleotides 10 μM, MraYBS 40 μg/mL, C55P 1 mM, 37 °C, 24 h. It counts as biochemical. The method, then:
The purified MraY from Bacillus subtilis was prepared as described in our previous reports. […] […] The reaction mixtures were added by uridine (0.01 mg/mL) as the internal standard and heated to 100 °C to stop the transferring reaction. The samples were analyzed by RP-C18 HPLC with gradient elution of 0.25 M NH4HCO3(aq)/15% MeOH in water (100:0 to 0:100) at a flow rate of 1 mL/min over 45 min, and the peaks of substrates were monitored at UV 260 nm. For 6 and 11–17, the reaction mixture containing MraYBS (10 μg/mL), C55P (200 μM), 6-(7-Nitro-2,1,3-benzoxadiazol-4-ylamino)hexanoic acid (5 μM, internal standard) in 10 μL reaction buffer (30 mM Tris, 10 mM MgCl2, 10 mM NaCl, 0.1 mM Tween-20, 2.5% DMSO, pH 8.0) were pre-incubated at 37 °C for 15 min. […] The reaction mixtures were heated to 100 °C to stop the transferring reaction, and samples were analyzed by an anion-exchange column (SAX1, Supelco Co., 5 μm, 4.6 × 250 mm) with a linear gradient elution of NH4OAc (20 mM to 1 M in MeOH) at a flow rate of 1.0 mL/min over 30 min. The fluorescent substrates were monitored with λex 466 nm/λem 535 nm by fluorescence detector.

Substrate in series [6]: CC(=O)N[C@H]1[C@@H](OP(=O)(O)OP(=O)(O)OC[C@H]2O[C@@H](n3ccc(=O)[nH]c3=O)[C@H](O)[C@@H]2O)O[C@H](CO)[C@@H](O)[C@@H]1O[C@H](C)C(=O)N[C@@H](C)C(=O)N[C@H](CCC(=O)N[C@@H](CCCCNC(=O)CCCCCNc1ccc([N+](=O)[O-])c2nonc12)C(=O)N[C@H](C)C(=O)N[C@H](C)C(=O)O)C(=O)O
As to the kind of experiment: MraY fluorescence enhancement assay (kinetics, inhibition). The format is biochemical, Bacillus subtilis. The settings on record: other: WT MraYBS, 6 as the substrate; pH 8.0; 37.0 °C. The method, then:
as §1

As for `CC(=O)N[C@H]1[C@@H](OP(=O)(O)OP(=O)(O)OC[C@H]2O[C@@H](n3cc(NC(=O)Cc4ccc(C)cc4)c(=O)[nH]c3=O)[C@H](O)[C@@H]2O)O[C@H](CO)[C@@H](O)[C@@H]1O[C@H](C)C(=O)N[C@@H](C)C(=O)O` [Compound 20], in series [1], the Ki – broadly, a dissociation constant, usually derived from enzyme kinetics or from competition with a known ligand – was found to be 11 ± 3 µM; the “difference of inhibition abilities (Ki values) of 19 and 20” value was determined as 70 fold; the “Inhibition Mode” value is on record as “Competitive”. Besides, the MIC (usually the lowest concentration found to suppress growth) in series [2] was above 200 µM. In addition, in series [3], the MIC was above 200 µM. Besides, the Kd (in general, the equilibrium constant for the complex coming apart) in series [4] amounted to 197 ± 47 µM. Further, in series [4] (ratio of KD), the “binding affinity fold stronger than that of 19” value is “approximately 1.5 fold”.

`CC(=O)N[C@H]1[C@@H](OP(=O)(O)OP(=O)(O)OC[C@H]2O[C@@H](n3cc(NC(=O)Cc4ccc(C)cc4)c(=O)[nH]c3=O)[C@H](O)[C@@H]2O)O[C@H](CO)[C@@H](O)[C@@H]1O[C@H](C)C(=O)N[C@@H](C)C(=O)N[C@H](CCC(=O)N[C@@H](CCCCN)C(=O)N[C@H](C)C(=O)N[C@H](C)C(=O)O)C(=O)O` [Compound 22]: in series [1], the Ki came out at 4 ± 1 µM, the “potency relative to tunicamycins (Ki)” value is on record as “approximately two-fold; also recorded: roughly twice” and the “Inhibition Mode” value is reported as “Competitive”. Moreover, the “substrate under extreme reaction conditions” value in series [5] is given as “not be a substrate”. Further, the MIC in series [2] is above 200 µM. The molecule also had an MIC in series [3] above 200 µM. This molecule also gave a Kd in series [4] of 86 ± 12 µM. Besides, the “binding affinity fold stronger than that of 20” value in series [4] (ratio of KD) is reported as “approximately 2.3 fold”.

B1: MraYBS (Bacillus subtilis subsp. subtilis str. 168) (protein)
chain: T1 sequence (Q03521 1-324)
notes: MBP; made in house
B1: the Km (as a rule, the concentration of substrate that gives half-maximal velocity) in series [6] was 18 ± 1 µM.
